# Values quoted from earlier work in patent US11555040B2, “Oxepinopyrazole derivatives as inhibitors of P13-kinase activity” (GLAXOSMITHKLINE INTELLECTUAL PROPERTY DEVELOPMENT LIMITED, priority 2017, dated 2023).
# Tested on: amphetamine-induced psychosis
# Details: Law et al. 2012
structure (smiles),measurement,value
Cc1ccccc1-n1c(Cn2cnc3c(N)ncnc32)nc2cccc(C)c2c1=O [IC87114],efficacy in mouse model of amphetamine-induced psychosis,remarkable efficacy
